Assay [1] addresses Butyrylcholinesterase (Equus caballus) (UniProt Q9N1N9). Put plainly: Inhibition of equine BChE at 100 uM by Ellman's method. In general terms: Ellman's reagent forms a yellow product with free thiols.
Assay [2] addresses T1, Acetylcholinesterase (Bos taurus) (UniProt P23795).
T1 sequence (whole entry): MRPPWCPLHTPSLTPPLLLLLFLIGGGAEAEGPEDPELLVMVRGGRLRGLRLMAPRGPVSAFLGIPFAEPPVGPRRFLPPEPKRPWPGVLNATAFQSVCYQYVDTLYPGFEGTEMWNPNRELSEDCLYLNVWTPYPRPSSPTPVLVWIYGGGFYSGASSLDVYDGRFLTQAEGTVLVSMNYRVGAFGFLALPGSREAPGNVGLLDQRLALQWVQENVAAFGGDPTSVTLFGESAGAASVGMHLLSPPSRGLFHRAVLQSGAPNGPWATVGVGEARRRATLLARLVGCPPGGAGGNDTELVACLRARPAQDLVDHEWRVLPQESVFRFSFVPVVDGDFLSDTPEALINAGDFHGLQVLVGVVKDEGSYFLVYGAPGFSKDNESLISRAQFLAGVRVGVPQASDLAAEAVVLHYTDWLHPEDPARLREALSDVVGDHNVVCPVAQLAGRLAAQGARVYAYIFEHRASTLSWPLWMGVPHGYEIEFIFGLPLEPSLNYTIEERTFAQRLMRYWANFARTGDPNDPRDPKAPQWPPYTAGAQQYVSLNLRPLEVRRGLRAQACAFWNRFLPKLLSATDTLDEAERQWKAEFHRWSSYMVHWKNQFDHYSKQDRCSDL
Description: Inhibition of bovine AChE at 100 uM by Ellman's method.

For the next assay, the system named is PC-3. Description: Cytotoxicity against human PC3 cells upto 100 uM after 24 hrs by XTT method. It counts as functional, cell-based. (In general: Tetrazolium dyes change colour on reduction, which living cells bring about.)

Usually inhibition stands for the percentage by which the read-out fell short of the control. High values mean a strong effect, low ones a weak effect.

Structures are written as SMILES.

Take `CC1=N[C@H](C(=O)O)Cc2c1[nH]c1cc(O)ccc21`: the inhibition in assay [1] and in assay [2] was < 50% each time. The Activity entry in the assay with PC-3 is “Not toxic”.

For the origin of these results see ChEMBL document CHEMBL1141296, “Brunneins A-C, beta-carboline alkaloids from Cortinarius brunneus” (J Nat Prod, 2007).
